Literature values in US20220168241A1, “SUSTAINED RELEASE C[…] METHOD OF PREPARATION THEREOF” (PHARMATHEN S.A., priority 2019, published 2022).

Molecular target: recombinant μ-opioid receptor (Homo sapiens, UniProt P35372)
Sequence (P35372 whole entry, species assumed): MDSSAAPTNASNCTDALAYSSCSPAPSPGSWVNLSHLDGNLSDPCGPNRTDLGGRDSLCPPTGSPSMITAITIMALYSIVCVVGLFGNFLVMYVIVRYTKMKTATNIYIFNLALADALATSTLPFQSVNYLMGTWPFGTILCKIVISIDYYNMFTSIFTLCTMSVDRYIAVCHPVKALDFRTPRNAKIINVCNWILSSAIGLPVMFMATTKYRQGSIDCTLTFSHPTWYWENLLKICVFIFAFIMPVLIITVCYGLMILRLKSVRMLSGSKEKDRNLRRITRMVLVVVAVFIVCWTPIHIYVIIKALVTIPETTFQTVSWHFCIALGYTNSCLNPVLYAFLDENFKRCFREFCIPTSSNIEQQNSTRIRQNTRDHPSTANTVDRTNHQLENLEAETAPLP

CC[C@@H](c1cccc(O)c1)[C@@H](C)CN(C)C [Tapentadol]
reduced affinity to recombinant μ-opioid receptor compared to morphine: 18 times
